*1 amine or outer side, *2 acyl side, *3 side chain or, on linkers, in order; H or OH if unused. Where a SMILES comes first, the peptide text is derived from it. Bridges are numbered along the chain shown (N, C = ends). [ ]: non-standard residue; d: D form. The star is where a group is joined. X1 = COc1cc2cc(c1Cl)N(C)C(=O)C[C@H](OC(=O)[C@H](C)N(C)C(=O)CCSSC(C)CCC(=O)*)[C@]1(C)O[C@H]1[C@H](C)[C@@H]1C[C@@](O)(NC(=O)O1)[C@H](OC)/C=C/C=C(\C)C2; 1Nal = N[C@@H](Cc1cccc2ccccc12)C(=O)O; TBMB = c1c(C[*:1])cc(C[*:3])cc1C[*:2]; Tle = CC(C)(C)[C@H](N)C(=O)O; βAla = NCCC(=O)O; Sar = CNCC(=O)O
Experiments:
NCI-H292 xenograft = assay: In vivo efficacy of BT1718 in NCI-H292 xenograft; parameters: species or system Mus Musculus; key to Best response at 10 mg/kg: CR complete response; PR partial response
Description: The objective of this study was to evaluate the in vivo anti-tumor efficacy of BT1718in treatment of HT1080, NCI-H292, NCI-H1975, MDA-MB-231, HCC1806, RPMI2650, HCT-15, HT-29 and SNU-16 xenograft in BALB/c nude mice.
The HT1080, NCI-H292, NCI-H1975, MDA-MB-231, HCC1806, RPMI2650, HCT-15, HT-29 and SNU-16 tumor cells were maintained in vitro as a monolayer culture in medium supplemented with 10% heat inactivated fetal bovine serum at 37° C. in an […]. The tumor cells will be routinely subcultured twice weekly by trypsin-EDTA treatment. The cells growing in an exponential growth phase will be harvested and counted for tumor inoculation.
Mouse was inoculated subcutaneously at the right flank with tumor cells for tumor development. The animals were randomized and treatment was started when the average tumor reaches certain volume for the efficacy study, the inoculating cell amounts and starting tumor size were shown as below in Table 9. The test article administration and the animal numbers in each group were shown in the experimental design in Table 10.
(§1) All the procedures related to animal handling, care and the treatment in the study were performed according to the guidelines of the Association for Assessment and Accreditation of Laboratory Animal Care (AAALAC). At the time of routine monitoring, the animals were daily checked for any effects of tumor growth and treatments on normal behavior such as mobility, food and water consumption (by looking only), body weight gain/loss (body weights were measured every day), eye/hair matting and any other abnormal effect as stated in the protocol. Death and observed clinical signs were recorded on the basis of the numbers of animals within each subset.
The major endpoint was to see if the tumor growth could be delayed or mice could be cured. Tumor size was measured three times weekly in two dimensions using a caliper, and the volume was expressed in mm^3 using the formula: V=0.5 a×b^2 where a and b are the long and short diameters of the tumor, respectively. The tumor size was then used for calculations of T/C value. The T/C value (in percent) is an indication of antitumor effectiveness; T and C are the mean volumes of the treated and control groups, respectively, on a given day.
TGI was calculated for each group using the formula: TGI (%)=[1−(Ti−T0)/(Vi−V0)]×100; Ti is the average tumor volume of a treatment group on a given day, T0 is the average tumor volume of the treatment group on the day of treatment start, Vi is the average tumor volume of the vehicle control group on the same day with Ti, and V0 is the average tumor volume of the vehicle group on the day of treatment start.
Summary statistics, including mean and the standard error of the mean (SEM), are provided for the tumor volume of each group at each time point.
Statistical analysis of difference in tumor volume among the groups was conducted on the data obtained at the best therapeutic time point after the final dose.
A one-way ANOVA was performed to compare tumor volume among groups, and when a significant F-statistics (a ratio of treatment variance to the error variance) was obtained, comparisons between groups were carried out with Games-Howell test. All data were analyzed using Prism. P<0.05 was considered to be statistically significant.

LU-01-0486 PDX model = format: in vivo, Mus Musculus; conditions: 3 or 10 mg/kg
Description: The objective of this study was to evaluate the in vivo anti-tumor efficacy of BT1718 in the treatment of MT1-MMP low-expressing LU-01-0486 PDX model in female Balb/C nude mice
Each mouse was inoculated subcutaneously at the right flank with LU-01-0486 of tumor fragment (30 mm^3) for tumor development. The treatments was started when the average tumor volume reaches 164 mm^3.
as §1, with “following” for “according to”, “guidance” for “guidelines”, “twice weekly),” for “every day),”
The major endpoint was to see if the tumor growth could be delayed or mice could be cured. Tumor size was measured two times weekly in two dimensions using a caliper, and the volume was expressed in mm^3 using the formula: V=0.5 a×b^2 where a and b are the long and short diameters of the tumor, respectively. The tumor size was then used for calculations of T/C value. […]
TGI was calculated for each group using the formula: TGI (%)=[1−(Ti−T0)/(Vi−V0)]×100; Ti is the average tumor volume of a treatment group on a given day, T0 is the average tumor volume of the treatment group on the day of treatment start, Vi is the average tumor volume of the vehicle control group on the same day with Ti, and V0 is the average tumor volume of the vehicle group on the day of treatment start. […]
A one-way ANOVA was performed to compare tumor volume among groups, and when a significant F-statistics (a ratio of treatment variance to the error variance) was obtained, comparisons between groups were carried out with Games-Howell test. All data were analyzed using Prism. […]

COc1cc2cc(c1Cl)N(C)C(=O)C[C@H](OC(=O)[C@H](C)N(C)C(=O)CCSSC(C)CCC(=O)NCCC(=O)N(C)CC(=O)N(C)CC(=O)N(C)CC(=O)N(C)CC(=O)N(C)CC(=O)N(C)CC(=O)N(C)CC(=O)N(C)CC(=O)N(C)CC(=O)N(C)CC(=O)N[C@@H](C)C(=O)N[C@H]1CSCc3cc4cc(c3)CSC[C@H](NC(=O)[C@@H](C)NC(=O)[C@H](Cc3cccc5ccccc35)NC(=O)[C@H](CCC(=O)O)NC(=O)[C@H](CC(N)=O)NC(=O)[C@@H](C)NC1=O)C(=O)N[C@@H](CCC(=O)O)C(=O)N[C@@H](CC(=O)O)C(=O)N[C@@H](Cc1ccccc1)C(=O)N[C@@H](Cc1ccc(O)cc1)C(=O)N[C@@H](CC(=O)O)C(=O)N[C@@H](C(C)(C)C)C(=O)N[C@H](C(N)=O)CSC4)[C@]1(C)O[C@H]1[C@H](C)[C@@H]1C[C@@](O)(NC(=O)O1)[C@H](OC)/C=C/C=C(\C)C2 (some centres unmarked) [BT1718] ({X1-βAla}-[Sar][Sar][Sar][Sar][Sar][Sar][Sar][Sar][Sar][Sar]AC[dA]NE[1Nal][dA]CEDFYD[Tle]C-NH2; linker 12-18-25 via TBMB (inferred))
tumors that failed to respond on resumed treatment (NCI-H292 xenograft; 10 mg/kg biw re-treatment): 1/3 | tumors with lack of clear tumor growth on re-treatment (NCI-H292 xenograft; 10 mg/kg biw re-treatment): 2/3 | Body Weight (NCI-H292 xenograft; 1 mpk biw, day 0): 22.8 ± 0.7 g | Tumor Volume (NCI-H292 xenograft; 1 mpk biw, day 0): 153 ± 9 mm^3 | Body Weight (NCI-H292 xenograft; 1 mpk biw, day 2): 22.9 ± 0.3 g | Tumor Volume (NCI-H292 xenograft; 1 mpk biw, day 2): 215 ± 25 mm^3 | Body Weight (NCI-H292 xenograft; 1 mpk biw, day 4): 23.4 ± 0.5 g | Tumor Volume (NCI-H292 xenograft; 1 mpk biw, day 4): 326 ± 49 mm^3 | Body Weight (NCI-H292 xenograft; 1 mpk biw, day 7): 23.6 ± 0.6 g | Tumor Volume (NCI-H292 xenograft; 1 mpk biw, day 7): 514 ± 54 mm^3 | Body Weight (NCI-H292 xenograft; 1 mpk biw, day 9): 23.7 ± 0.7 g | Tumor Volume (NCI-H292 xenograft; 1 mpk biw, day 9): 669 ± 53 mm^3 | Body Weight (NCI-H292 xenograft; 1 mpk biw, day 11): 23.4 ± 0.7 g | Tumor Volume (NCI-H292 xenograft; 1 mpk biw, day 11): 978 ± 97 mm^3 | Body Weight (NCI-H292 xenograft; 1 mpk biw, day 14): 23.5 ± 1.0 g | TGI (%) (NCI-H292 xenograft; 1 mpk biw, day 14): 20.7% | Tumor Volume (NCI-H292 xenograft; 1 mpk biw, day 14): 1174 ± 98 mm^3 | Tumor Volume(mm^3) (NCI-H292 xenograft; 1 mpk biw, day 14): 1174 ± 98 mm^3 | Body Weight (NCI-H292 xenograft; 3 mpk biw, day 0): 22.7 ± 0.5 g | Tumor Volume (NCI-H292 xenograft; 3 mpk biw, day 0): 151 ± 15 mm^3 | Body Weight (NCI-H292 xenograft; 3 mpk biw, day 2): 23.5 ± 0.4 g | Tumor Volume (NCI-H292 xenograft; 3 mpk biw, day 2): 226 ± 22 mm^3 | Body Weight (NCI-H292 xenograft; 3 mpk biw, day 4): 23.2 ± 0.7 g | Tumor Volume (NCI-H292 xenograft; 3 mpk biw, day 4): 334 ± 65 mm^3 | Body Weight (NCI-H292 xenograft; 3 mpk biw, day 7): 23.4 ± 0.8 g | Tumor Volume (NCI-H292 xenograft; 3 mpk biw, day 7): 443 ± 70 mm^3 | Body Weight (NCI-H292 xenograft; 3 mpk biw, day 9): 22.9 ± 0.9 g | Tumor Volume (NCI-H292 xenograft; 3 mpk biw, day 9): 591 ± 90 mm^3 | Body Weight (NCI-H292 xenograft; 3 mpk biw, day 11): 22.6 ± 1.0 g | Tumor Volume (NCI-H292 xenograft; 3 mpk biw, day 11): 781 ± 178 mm^3 | Body Weight (NCI-H292 xenograft; 3 mpk biw, day 14): 22.0 ± 1.2 g | TGI (%) (NCI-H292 xenograft; 3 mpk biw, day 14): 40.3% | Tumor Volume (NCI-H292 xenograft; 3 mpk biw, day 14): 920 ± 258 mm^3 | Tumor Volume(mm^3) (NCI-H292 xenograft; 3 mpk biw, day 14): 920 ± 258 mm^3 | Body Weight (NCI-H292 xenograft; 10 mpk biw, day 0): 22.8 ± 0.4 g | Tumor Volume (NCI-H292 xenograft; 10 mpk biw, day 0): 153 ± 6 mm^3 | Body Weight (NCI-H292 xenograft; 10 mpk biw, day 2): 22.1 ± 0.3 g | Tumor Volume (NCI-H292 xenograft; 10 mpk biw, day 2): 152 ± 8 mm^3 | Body Weight (NCI-H292 xenograft; 10 mpk biw, day 4): 21.7 ± 0.3 g | Tumor Volume (NCI-H292 xenograft; 10 mpk biw, day 4): 151 ± 32 mm^3 | Body Weight (NCI-H292 xenograft; 10 mpk biw, day 7): 22.4 ± 0.3 g | Tumor Volume (NCI-H292 xenograft; 10 mpk biw, day 7): 159 ± 49 mm^3 | Body Weight (NCI-H292 xenograft; 10 mpk biw, day 9): 21.8 ± 0.2 g | Tumor Volume (NCI-H292 xenograft; 10 mpk biw, day 9): 158 ± 49 mm^3 | Body Weight (NCI-H292 xenograft; 10 mpk biw, day 11): 21.8 ± 0.2 g | Tumor Volume (NCI-H292 xenograft; 10 mpk biw, day 11): 143 ± 52 mm^3 | Body Weight (NCI-H292 xenograft; 10 mpk biw, day 14): 22.5 ± 0.4 g | TGI (%) (NCI-H292 xenograft; 10 mpk biw, day 14): 101.6% | Tumor Volume (NCI-H292 xenograft; 10 mpk biw, day 14): 133 ± 44 mm^3 | Tumor Volume(mm^3) (NCI-H292 xenograft; 10 mpk biw, day 14): 133 ± 44 mm^3 | Best response at 10 mg/kg (NCI-H292 xenograft; NCI-H292, 10 mg/kg): CR | Minimally Effective Dose IV BIW (NCI-H292 xenograft; NCI-H292, dose leading to tumor-stasis): <10 mg/kg | dosing suspension until re-growth to 150 mm3 (NCI-H292 xenograft; after 10 mg/kg biw): 2-3 weeks | tumor volume after regression (NCI-H292 xenograft; after 4 weeks 10 mg/kg biw): below 50 mm3 | body weight effect (LU-01-0486 PDX model): no significant effect on body weight | tumor growth (LU-01-0486 PDX model): limited inhibition of tumor growth

From patent US10441663B2, “Methods for treating cancer” (Bicycle Therapeutics Limited, priority 2016, dated 2019)
